Series [1] addresses T1, CD4 (Homo sapiens, UniProt P01730).
T1 construct: Recombinant human soluble CD4 (full-length 45 kDa glycosylated ectodomain); purchased Protein Sciences Corporation, Meriden, Conn; host or cells: ExpresSF+ S. frugiperda cells
The experiment in a line: Surface plasmon resonance binding. Conditions: immobilized CD4. An excerpt:
(§1) Surface plasmon resonance. Recombinant human soluble CD4 (full-length 45 kDa glycosylated ectodomain) was produced by ExpresSF+S. frugiperda cells in serum-free medium (Protein Sciences Corporation, Meriden, Conn.). Glycosylated HIV-1 gp120 (LAV) envelope glycoprotein (Catalog No. 2003-LAV) was purchased from the same source. Recombinant HIV-1BaL was obtained through the AIDS Research and Reference Reagent Program, Division of AIDS, National Institute of Allergy and Infectious Disease, NIH.
Surface plasmon resonance (SPR) experiments were done with a Biacore 2000 system (Biacore, Inc., Piscataway, N.J.). The running buffer (pH 7.4) contained 10 mM HEPES, 150 mM NaCl, 3 mM EDTA and 0.005% polysorbate 20. The immobilized proteins (gp120-LAV and CD4) were dissolved at 20 μg/ml in 10 mM sodium acetate, pH 5.0 and immobilized on a Biacore CM5 sensor chip using the amine coupling method. The chip was activated by mixing 400 mM EDC (N-ethyl-N-(3-dimethylaminopropyl)-carbodiimide hydrochloride) and 100 mM N-hydroxysuccinimide. […] Residual reactive groups on the chip surface were blocked using 1.0 Methanolamine/HCl, pH 8.5.
(§2) The flow cell chip used as a control lacked immobilized protein but was otherwise treated as above. Signals were corrected for nonspecific binding by subtracting the control signal. To regenerate the chip surface, bound ligands were removed with 10 mM HCl. Data were analyzed with BIAevaluation 3.1 software. Curve fitting was done with an assumption of 1:1 binding.
In those experiments, biosensor chips containing immobilized gp120 or CD4 were perfused with a 1 μg/ml solution of the peptides, and binding was measured by surface plasmon resonance. […] No binding studies were performed with gp120 preparations derived from non-B HIV-1 subtypes.
(In general: SPR reads the build-up and loss of mass on a sensor chip optically.)

For series [2], the system named is human red blood cells. Description: Hemagglutination of washed red blood cells in PBS. Conditions: washed human red blood cells in PBS. The protocol:
Hemagglutination was tested by adding the stated concentration of peptide to a well comprising red blood cells (shown in FIG. 22). When the RBC are agglutinated, they clump together and settle rapidly and form a diffuse circle covering much of the bottom of the well. In the absence of agglutination, they settle more slowly and form a compact red button in the center of the well.
Sequences of retrocyclin-related peptides that were synthesized and either tested for activity against HIV-1 (see FIGS. 21A and 21B) and/or for their ability to cause human red blood cells to hemagglutinate or both. NT signifies not tested. Linear sequences appear in the table, but all peptides were cyclic and contained three intramolecular disulfide bonds. Hemagglutination of washed human red blood cells was tested in PBS, at peptide concentrations of 50, 25, 12.5 6.25 and 3.12 μg/ml. The lowest concentrations that caused hemagglutination are shown. Peptide concentrations were determined by amino acid analysis or by AUC (area under the curve) RP-HPLC analysis with reference to amino-acid analyzed standards.

For series [3], the target named is T2, gp120 (LAV) (Human immunodeficiency virus type 1 group M subtype B, UniProt P03377).
T2 construct: Glycosylated HIV-1 gp120 (LAV) envelope glycoprotein; purchased Protein Sciences Corporation, Meriden, Conn; 2003-LAV
Description: Surface plasmon resonance binding. On the set-up: species or system HIV-1. The protocol:
FIG. 20. Binding to gp120. These binding isotherms were measured by surface plasmon resonance, using a biosensor chip that contained immobilized, recombinant gp120. Various concentrations of RC-100 and RC-101 (0.05 to 0.5 μg/ml) flowed over the biosensor chip between minutes 1 to 4, to allow the “on rates” to be measured. At 4 minutes, the peptide-containing solutions were replaced by peptide-free medium, to ascertain the “off-rates.”
as §1
Surface plasmon resonance (SPR) experiments were done with a Biacore 2000 system (Biacore, Inc., Piscataway, N.J.). The running buffer (pH 7.4) contained 10 mM HEPES, 150 mM NaCl, 3 mM EDTA and 0.005% polysorbate 20. The immobilized proteins (gp120-LAV and CD4) were dissolved at 20 μg/ml in 10 mM sodium acetate, pH 5.0 and immobilized on a Biacore CM5 sensor chip using the amine coupling method. The chip was activated by mixing 400 mM EDC (N-ethyl-N-(3-dimethylaminopropyl)-carbodiimide hydrochloride) and 100 mM N-hydroxysuccinimide. An immobilization level of −6000 response units (RU) was attained for each bound protein. Residual reactive groups on the chip surface were blocked using 1.0 Methanolamine/HCl, pH 8.5.
as §2
We previously reported that the protection against HIV-1 afforded by retrocyclin-1 and its analogs was correlated to their binding to gp120 and CD4. In those experiments, biosensor chips containing immobilized gp120 or CD4 were perfused with a 1 μg/ml solution of the peptides, and binding was measured by surface plasmon resonance. When we compared binding by retrocyclin-1 and RC-101 in exactly the same manner, we saw very little difference between them. FIG. 20 compares the binding of lower concentrations of these peptides, ranging from 0.05 to 0.5 μg/ml, to immobilized gp120 LAV. From these binding isotherms, and from similar studies performed with biosensor chips containing immobilized gp120 BaL or CD4, the binding constants shown in Table 7 were obtained. […]

SMILES strings stand for the structures. “Also recorded” adds a separate entry of the source. Where a SMILES comes first, the peptide text is derived from it. Bridges are numbered along the chain shown (N, C = ends). Where only a bound is given, the exact number is not on record here.

What is called koff is a measure of how fast the partners let go of each other. Read a low koff as slow dissociation. One may read the kon as the rate constant with which the complex forms. A lower kon goes with slower complex formation. In series [1], `CC[C@H](C)[C@@H]1NC(=O)CNC(=O)[C@H](CCCNC(=N)N)NC(=O)CNC(=O)[C@@H]2CSSC[C@H](NC1=O)C(=O)N[C@@H](CCCNC(=N)N)C(=O)N[C@H]1CSSC[C@H](NC(=O)[C@H](CCCNC(=N)N)NC(=O)[C@@H]3CSSC[C@H](NC(=O)[C@H]([C@@H](C)CC)NC1=O)C(=O)NCC(=O)N[C@@H](CCCNC(=N)N)C(=O)NCC(=O)N[C@@H]([C@@H](C)CC)C(=O)N3)C(=O)N[C@@H]([C@@H](C)CC)C(=O)N2` [RC-100, Retrocyclin] (cyclo(GICRCICGRGICRCICGR); disulfide 3-16, 5-14, 7-12) returned a koff of 0.0022 s⁻¹ and a kon of 67700 M⁻¹ s⁻¹. Further, in series [2], the “Hemagglutination seen at a concentration of (lowest concentration that caused hemagglutination)” value lay in the range of 6 to 12.5 µg/mL. In series [3], the koff came out at 0.00296 s⁻¹ and the kon worked out at 80300 M⁻¹ s⁻¹.
In the case of `CC[C@H](C)[C@@H]1NC(=O)CNC(=O)[C@H](CCCCN)NC(=O)CNC(=O)[C@@H]2CSSC[C@H](NC1=O)C(=O)N[C@@H](CCCNC(=N)N)C(=O)N[C@H]1CSSC[C@H](NC(=O)[C@H](CCCNC(=N)N)NC(=O)[C@@H]3CSSC[C@H](NC(=O)[C@H]([C@@H](C)CC)NC1=O)C(=O)NCC(=O)N[C@@H](CCCNC(=N)N)C(=O)NCC(=O)N[C@@H]([C@@H](C)CC)C(=O)N3)C(=O)N[C@@H]([C@@H](C)CC)C(=O)N2` [RC-101, R9K-Retrocyclin], in series [1], the koff was found to be 0.00226 s⁻¹ and the kon stood at 79000 M⁻¹ s⁻¹. Besides, in series [2], the “Hemagglutination seen at a concentration of (lowest concentration that caused hemagglutination)” value is over 200 µg/mL and the “hemagglutination compared with retrocyclin” value is reported as “much less hemagglutination than retrocyclin; also recorded: less hemagglutination than retrocyclin-1 or retrocyclin-2”. In series [3], this compound gave a koff of 0.00304 s⁻¹ and a kon of 97200 M⁻¹ s⁻¹.
